Results as given in ChEMBL document CHEMBL1146003, “Synthesis of 13-(substituted benzyl) berberine and berberrubine derivatives as antifungal agents” (2006).
In brackets after ≈: the same amount, converted by molar mass. Each block holds one molecule with its values, some of them ahead of it.

Columns and labels:
Type in all cases: functional
Candida albicans = experiment: Antifungal activity against Candida albicans ATCC 10231 by broth microdilution method
Candida tropicalis = experiment: Antifungal activity against Candida tropicalis ATCC 13803 by broth microdilution method
Clavispora lusitaniae = experiment: Antifungal activity against Candida lusitaniae ATCC 42720 by broth microdilution method
Pichia kudriavzevii = experiment: Antifungal activity against Candida krusei ATCC 6258 by broth microdilution method
Aspergillus fumigatus = experiment: Antifungal activity against Aspergillus fumigatus ATCC 16424 by broth microdilution method
Aspergillus terreus = experiment: Antifungal activity against Aspergillus terreus ATCC 46941 by broth microdilution method
Cryptococcus neoformans = experiment: Antifungal activity against Cryptococcus neoformans ATCC 36556 by broth microdilution method

SMILES: COc1cc(Cc2c3[n+](cc4c(O)c(OC)ccc24)CCc2cc4c(cc2-3)OCO4)cc(OC)c1OC.[Cl-]
MIC (Candida albicans): > 128 µg/mL
MIC (Candida tropicalis): 128 µg/mL
MIC (Clavispora lusitaniae): 128 µg/mL
MIC (Pichia kudriavzevii): > 128 µg/mL
MIC (Aspergillus fumigatus): > 128 µg/mL
MIC (Aspergillus terreus): > 128 µg/mL
MIC (Cryptococcus neoformans): 32 µg/mL

SMILES: COc1ccc2c(Cc3cc(F)cc(F)c3)c3[n+](cc2c1O)CCc1cc2c(cc1-3)OCO2.[Cl-]
MIC (Candida albicans): > 128 µg/mL
MIC (Candida tropicalis): 128 µg/mL
MIC (Clavispora lusitaniae): 128 µg/mL
MIC (Pichia kudriavzevii): 128 µg/mL
MIC (Aspergillus fumigatus): > 128 µg/mL
MIC (Aspergillus terreus): > 128 µg/mL
MIC (Cryptococcus neoformans): 32 µg/mL

SMILES: COc1ccc2cc3[n+](cc2c1O)CCc1cc2c(cc1-3)OCO2 [BERBERRUBINE]
MIC (Candida albicans): > 128 µg/mL
MIC (Candida tropicalis): 128 µg/mL
MIC (Clavispora lusitaniae): > 128 µg/mL
MIC (Pichia kudriavzevii): > 128 µg/mL
MIC (Aspergillus fumigatus): > 128 µg/mL
MIC (Aspergillus terreus): > 128 µg/mL
MIC (Cryptococcus neoformans): > 128 µg/mL

SMILES: COc1ccc2c(Cc3cc(F)c(F)c(F)c3)c3[n+](cc2c1OC)CCc1cc2c(cc1-3)OCO2.[Cl-]
MIC (Candida albicans): 128 µg/mL
MIC (Candida tropicalis): 64 µg/mL
MIC (Clavispora lusitaniae): 128 µg/mL
MIC (Pichia kudriavzevii): 64 µg/mL
MIC (Aspergillus fumigatus): > 128 µg/mL
MIC (Aspergillus terreus): > 128 µg/mL
MIC (Cryptococcus neoformans): 64 µg/mL

SMILES: COc1ccc2c(Cc3ccc(C(F)(F)F)cc3)c3[n+](cc2c1O)CCc1cc2c(cc1-3)OCO2.[Cl-]
MIC (Candida albicans): 128 µg/mL
MIC (Candida tropicalis): 64 µg/mL
MIC (Clavispora lusitaniae): 64 µg/mL
MIC (Pichia kudriavzevii): 64 µg/mL
MIC (Aspergillus fumigatus): > 128 µg/mL
MIC (Aspergillus terreus): > 128 µg/mL
MIC (Cryptococcus neoformans): 16 µg/mL

SMILES: COc1ccc2c(Cc3cc(F)c(F)c(F)c3)c3[n+](cc2c1O)CCc1cc2c(cc1-3)OCO2.[Cl-]
MIC (Candida albicans): > 128 µg/mL
MIC (Candida tropicalis): 128 µg/mL
MIC (Clavispora lusitaniae): 128 µg/mL
MIC (Pichia kudriavzevii): 128 µg/mL
MIC (Aspergillus fumigatus): > 128 µg/mL
MIC (Aspergillus terreus): > 128 µg/mL
MIC (Cryptococcus neoformans): 64 µg/mL

SMILES: COc1ccc2c(Cc3cc(F)cc(F)c3)c3[n+](cc2c1OC)CCc1cc2c(cc1-3)OCO2.[Cl-]
MIC (Candida albicans): 128 µg/mL
MIC (Candida tropicalis): 32 µg/mL
MIC (Clavispora lusitaniae): 64 µg/mL
MIC (Pichia kudriavzevii): 64 µg/mL
MIC (Aspergillus fumigatus): > 128 µg/mL
MIC (Aspergillus terreus): > 128 µg/mL
MIC (Cryptococcus neoformans): 32 µg/mL

SMILES: C[C@@H]1[C@H](O)[C@@H](C)/C=C/C=C/C=C/C=C/C=C/C=C/C=C/[C@H](O[C@@H]2O[C@H](C)[C@@H](O)[C@H](N)[C@@H]2O)C[C@@H]2O[C@](O)(C[C@@H](O)C[C@@H](O)[C@H](O)CC[C@@H](O)C[C@@H](O)CC(=O)O[C@H]1C)C[C@H](O)[C@H]2C(=O)O [AMPHOTERICIN B]
MIC (Candida albicans): 0.5 µg/mL (≈ 0.541 µM)
MIC (Candida tropicalis): 0.5 µg/mL (≈ 0.541 µM)
MIC (Clavispora lusitaniae): 1 µg/mL (≈ 1.08 µM)
MIC (Pichia kudriavzevii): 0.5 µg/mL (≈ 0.541 µM)
MIC (Aspergillus fumigatus): 1 µg/mL (≈ 1.08 µM)
MIC (Aspergillus terreus): 16 µg/mL (≈ 17.3 µM)
MIC (Cryptococcus neoformans): 0.25 µg/mL (≈ 0.271 µM)

Results, then the molecule that gave them:

MIC (Candida albicans): 128 µg/mL
MIC (Candida tropicalis): 64 µg/mL
MIC (Clavispora lusitaniae): 128 µg/mL
MIC (Pichia kudriavzevii): 64 µg/mL
MIC (Aspergillus fumigatus): > 128 µg/mL
MIC (Aspergillus terreus): > 128 µg/mL
MIC (Cryptococcus neoformans): 32 µg/mL
SMILES: COc1cc(Cc2c3[n+](cc4c(OC)c(OC)ccc24)CCc2cc4c(cc2-3)OCO4)cc(OC)c1OC.[Cl-]

MIC (Candida albicans): 4 µg/mL
MIC (Candida tropicalis): 1 µg/mL
MIC (Clavispora lusitaniae): 8 µg/mL
MIC (Pichia kudriavzevii): 4 µg/mL
MIC (Aspergillus fumigatus): 64 µg/mL
MIC (Aspergillus terreus): 32 µg/mL
MIC (Cryptococcus neoformans): 4 µg/mL
SMILES: COc1ccc2c(Cc3ccc(C(C)C)cc3)c3[n+](cc2c1OC)CCc1cc2c(cc1-3)OCO2.[Cl-]

MIC (Candida albicans): 128 µg/mL
MIC (Candida tropicalis): 16 µg/mL
MIC (Clavispora lusitaniae): > 128 µg/mL
MIC (Pichia kudriavzevii): 32 µg/mL
MIC (Aspergillus fumigatus): > 128 µg/mL
MIC (Aspergillus terreus): > 128 µg/mL
MIC (Cryptococcus neoformans): 64 µg/mL
SMILES: COc1ccc2cc3[n+](cc2c1OC)CCc1cc2c(cc1-3)OCO2.[Cl-] [BERBERINE CHLORIDE]

MIC (Candida albicans): 16 µg/mL
MIC (Candida tropicalis): 16 µg/mL
MIC (Clavispora lusitaniae): 8 µg/mL
MIC (Pichia kudriavzevii): 32 µg/mL
MIC (Aspergillus fumigatus): > 128 µg/mL
MIC (Aspergillus terreus): > 128 µg/mL
MIC (Cryptococcus neoformans): 8 µg/mL
SMILES: COc1ccc2c(Cc3ccc(C(C)(C)C)cc3)c3[n+](cc2c1O)CCc1cc2c(cc1-3)OCO2.[Cl-]

MIC (Candida albicans): 64 µg/mL
MIC (Candida tropicalis): 32 µg/mL
MIC (Clavispora lusitaniae): 32 µg/mL
MIC (Pichia kudriavzevii): 32 µg/mL
MIC (Aspergillus fumigatus): > 128 µg/mL
MIC (Aspergillus terreus): > 128 µg/mL
MIC (Cryptococcus neoformans): 16 µg/mL
SMILES: COc1ccc2c(Cc3ccc(OC(F)(F)F)cc3)c3[n+](cc2c1O)CCc1cc2c(cc1-3)OCO2.[Cl-]

MIC (Candida albicans): 32 µg/mL
MIC (Candida tropicalis): 16 µg/mL
MIC (Clavispora lusitaniae): 32 µg/mL
MIC (Pichia kudriavzevii): 32 µg/mL
MIC (Aspergillus fumigatus): > 128 µg/mL
MIC (Aspergillus terreus): > 128 µg/mL
MIC (Cryptococcus neoformans): 16 µg/mL
SMILES: COc1ccc2c(Cc3ccc(C(F)(F)F)cc3)c3[n+](cc2c1OC)CCc1cc2c(cc1-3)OCO2.[Cl-]

MIC (Candida albicans): 16 µg/mL
MIC (Candida tropicalis): 8 µg/mL
MIC (Clavispora lusitaniae): 32 µg/mL
MIC (Pichia kudriavzevii): 16 µg/mL
MIC (Aspergillus fumigatus): > 128 µg/mL
MIC (Aspergillus terreus): > 128 µg/mL
MIC (Cryptococcus neoformans): 16 µg/mL
SMILES: COc1ccc2c(Cc3ccc(OC(F)(F)F)cc3)c3[n+](cc2c1OC)CCc1cc2c(cc1-3)OCO2.[Cl-]

MIC (Candida albicans): 16 µg/mL
MIC (Candida tropicalis): 16 µg/mL
MIC (Clavispora lusitaniae): 8 µg/mL
MIC (Pichia kudriavzevii): 16 µg/mL
MIC (Aspergillus fumigatus): > 128 µg/mL
MIC (Aspergillus terreus): > 128 µg/mL
MIC (Cryptococcus neoformans): 4 µg/mL
SMILES: COc1ccc2c(Cc3ccc(C(C)C)cc3)c3[n+](cc2c1O)CCc1cc2c(cc1-3)OCO2.[Cl-]

MIC (Candida albicans): 4 µg/mL
MIC (Candida tropicalis): 2 µg/mL
MIC (Clavispora lusitaniae): 8 µg/mL
MIC (Pichia kudriavzevii): 8 µg/mL
MIC (Aspergillus fumigatus): 64 µg/mL
MIC (Aspergillus terreus): 64 µg/mL
MIC (Cryptococcus neoformans): 4 µg/mL
SMILES: COc1ccc2c(Cc3ccc(C(C)(C)C)cc3)c3[n+](cc2c1OC)CCc1cc2c(cc1-3)OCO2.[Cl-]
